Structures are written as SMILES. In brackets after ≈: the same amount, converted by molar mass.

One may read the IC50 as the midpoint of a concentration-inhibition curve. A word on the solubility: it is the concentration that dissolves in the medium under given conditions.

The target of one data set is T1, acid ceramidase (Homo sapiens, UniProt Q13510).
T1 construct: Cell lysates overexpressing acid ceramidase were used as the enzyme source; expressed in transfected cells
T1 sequence (Q13510 22-395): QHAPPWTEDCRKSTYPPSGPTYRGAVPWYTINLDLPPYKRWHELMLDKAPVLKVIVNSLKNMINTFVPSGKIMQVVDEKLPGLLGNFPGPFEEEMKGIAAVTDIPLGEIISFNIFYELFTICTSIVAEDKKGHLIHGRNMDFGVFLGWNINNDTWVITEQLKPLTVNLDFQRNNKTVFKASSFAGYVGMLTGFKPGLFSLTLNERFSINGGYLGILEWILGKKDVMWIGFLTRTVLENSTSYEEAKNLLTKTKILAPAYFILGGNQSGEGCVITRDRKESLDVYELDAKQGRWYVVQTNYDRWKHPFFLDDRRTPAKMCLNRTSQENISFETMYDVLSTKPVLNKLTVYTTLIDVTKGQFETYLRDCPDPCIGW
The experiment in a line: Acid ceramidase inhibition, biochemical fluorescent assay with cell lysates overexpressing acid ceramidase, substrate Rbm14-12. Conditions: substrate Rbm14-12 6.3 μM. In a few lines:
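Lysate of cells overexpressing acid ceramidase (10 μg protein) preincubated with compound dose series 1 hr at RT in 25 mM NaAC, 100 mM NaCl, pH 4.5, then reacted 1 hr with 6.3 μM Rbm14-12. Stopped with NaIO4/glycine buffer pH 10.6, fluorescence ex360/em446; IC50 by four-parameter fit.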

Data set [1] in a line: Compound solubility in water.
Setting [2] is: pH 4.5, 1 hr preincubation at RT.

For `CC(C)OCCNC(=O)n1cnc2ccccc21` [Example 48, N-(2-iso-Propoxyethyl)-1H-benzo[d]imidazole-1-carboxamide], the IC50 against acid ceramidase (setting [2]) lay in the range of 200 to 1000 nM. Also, in data set [1], the solubility was 15.4 µg/mL (≈ 62.3 µM).

In turn, `CN1CCN(c2cccc3c2ncn3C(=O)NCCC2CCC(F)(F)C2)CC1` (stereo not shown) [Example 258, N-(2-(3,3-Difluorocyclopentyl)ethyl)-4-(4-methylpiperazin-1-yl)-1H-benzo[d]imidazole-1-carboxamide] came in with an IC50 at acid ceramidase (pH 4.5) below 200 nM. In addition, in data set [1], the solubility came to 34 µg/mL (≈ 86.9 µM).

`O=C(NCCc1ccccc1)n1c(OC2CC2)nc2ccccc21` [Example 34, 2-Cyclopropoxy-N-phenethyl-1H-benzo[d]imidazole-1-carboxamide]: the IC50 at acid ceramidase (setting [2]) was below 200 nM. Also, the concentration in solution in data set [1] (solubility) came to 0.5 µg/mL (≈ 1.56 µM).

Consider `N#CCCN1CCN(c2cccc3c2ncn3C(=O)NCCC2CCC(F)(F)C2)CC1` (stereo not shown) [Example 288, 4-(4-(2-Cyanoethyl)piperazin-1-yl)-N-(2-(3,3-difluorocyclopentyl)ethyl)-1H-benzo[d]imidazole-1-carboxamide], for which the IC50 on acid ceramidase (pH 4.5) fell in the range of 200 to 1000 nM. In addition, the solubility in data set [1] came to 26 µg/mL (≈ 60.4 µM).

The compound `COc1nc2ccccc2n1C(=O)NCCCCn1ccc(C(C)(C)C)n1` [Example 187, N-(4-(3-(tert-Butyl)-1H-pyrazol-1-yl)butyl)-2-methoxy-1H-benzo[d]imidazole-1-carboxamide] returned a concentration for half-maximal inhibition (IC50) on acid ceramidase (pH 4.5) of 200 to 1000 nM. This compound showed a solubility in data set [1] of 22 µg/mL (≈ 59.5 µM).

Regarding `CC(C)C#CCNC(=O)n1cnc2c(N3CCN(C4CN(C)C4)CC3)cccc21` [Example 299, 4-(4-(1-Methylazetidin-3-yl)piperazin-1-yl)-N-(4-methylpent-2-yn-1-yl)-1H-benzo[d]imidazole-1-carboxamide], the IC50 at acid ceramidase (pH 4.5) is below 200 nM. In data set [1], this compound yielded a solubility of 30 µg/mL (≈ 76 µM).

`COc1c(N2CCOCC2)ccc2c1ncn2C(=O)NCCc1ccccc1` [Example 40, 4-Methoxy-5-morpholino-N-phenethyl-1H-benzo[d]imidazole-1-carboxamide]: the IC50 against acid ceramidase (setting [2]) was below 200 nM. The compound further had a solubility in data set [1] of 10.5 µg/mL (≈ 27.6 µM).

Turning to `CN1CCN(c2cccc3c2ncn3C(=O)NCC#CC2CC2)CC1` [Example 283, N-(3-Cyclopropylprop-2-ynyl)-4-(4-methylpiperazin-1-yl)-1H-benzo[d]imidazole-1-carboxamide], on acid ceramidase (pH 4.5), the IC50 was below 200 nM. The solubility in data set [1] is 28 µg/mL (≈ 83 µM).

At acid ceramidase (pH 4.5), `COC1(C)CN(c2cccc3c2ncn3C(=O)NCCC(C)C)C1` [Example 177, N-iso-Pentyl-4-(3-methoxy-3-methylazetidin-1-yl)-1H-benzo[d]imidazole-1-carboxamide] registered an IC50 of 200 to 1000 nM. Also, in data set [1], the solubility stood at 13 µg/mL (≈ 39.3 µM).

At acid ceramidase (setting [2]), `CCCCNC(=O)n1cnc2ccc(C(F)(F)F)cc21` [Example 49b, N-butyl-6-(trifluoromethyl)-1H-benzo[d]imidazole-1-carboxamide] returned an IC50 below 200 nM. This compound also had a solubility in data set [1] of 12.6 µg/mL (≈ 44.2 µM).

At acid ceramidase (pH 4.5), `N#Cc1cc(N2CCOCC2)c2ncn(C(=O)NCCCC3CC3)c2c1` [Example 178, 6-Cyano-N-(3-cyclopropylpropyl)-4-morpholino-1H-benzo[d]imidazole-1-carboxamide] returned an IC50 below 200 nM. Moreover, the solubility in data set [1] was 2 µg/mL (≈ 5.66 µM).

In turn, `COc1nc2cc(N3CCOCC3)c(F)cc2n1C(=O)NCCCCc1ccccc1` [Example 215, 6-Fluoro-2-methoxy-5-morpholino-N-(4-phenylbutyl)-1H-benzo[d]imidazole-1-carboxamide] came in with an IC50 against acid ceramidase (pH 4.5) below 200 nM. Besides, the solubility in data set [1] is 0.3 µg/mL (≈ 0.703 µM).

On acid ceramidase (setting [2]), `CC(C)CCNC(=O)n1cnc2cc(-c3cncnc3)ccc21` [Example 103b, N-iso-pentyl-5-(pyrimidin-5-yl)-1H-benzo[d]imidazole-1-carboxamide] displayed an IC50 below 200 nM. In data set [1], the solubility stood at 11.9 µg/mL (≈ 38.5 µM).

Take `COc1nc2ccc(N3CCOCC3)cc2n1C(=O)NCCCOC(F)(F)F` [Example 233a, 2-Methoxy-6-morpholino-N-(3-(trifluoromethoxy)propyl)-1H-benzo[d]imidazole-1-carboxamide]: on acid ceramidase (pH 4.5), the IC50 is 200 to 1000 nM. Further, the solubility in data set [1] came out at 30 µg/mL (≈ 74.6 µM).

On to `COc1nc2ccc(N3CCOCC3)cc2n1C(=O)NCCCC1(C(F)(F)F)CC1` [Example 183a, 2-Methoxy-6-morpholino-N-(3-(1-(trifluoromethyl)cyclopropyl)propyl)-1H benzo[d]imidazole-1-carboxamide], for which the IC50 on acid ceramidase (pH 4.5) is below 200 nM. Further, the concentration in solution in data set [1] (solubility) came to 15 µg/mL (≈ 35.2 µM).

As to `CCOc1nc2ncccc2n1C(=O)NCCCc1ccccc1` [Example 91a, 2-Ethoxy-N-(3-phenylpropyl)-1H-imidazo[4,5-b]pyridine-1-carboxamide], the half-maximal inhibitory concentration (IC50) at acid ceramidase (setting [2]) is below 200 nM. The same compound showed a solubility in data set [1] of 7 µg/mL (≈ 21.6 µM).

The compound `CC(C)C#CCNC(=O)n1cnc2c(N3CCN(C)C(CC#N)C3)cccc21` (stereo not shown) [Example 306, 4-(3-(Cyanomethyl)-4-methylpiperazin-1-yl)-N-(4-methylpent-2-ynyl)-1H-benzo[d]imidazole-1-carboxamide] yielded an IC50 at acid ceramidase (pH 4.5) below 200 nM. In data set [1], this compound came in with a solubility of 23 µg/mL (≈ 60.8 µM).

Compound `Cn1c(=O)n(C(=O)NCCc2ccccc2)c2ccc(-c3cncnc3)cc21` [Example 32b, 3-methyl-2-oxo-N-phenethyl-5-(pyrimidin-5-yl)-2,3-dihydro-1H-benzo[d]imidazole-1-carboxamide] showed an IC50 against acid ceramidase (setting [2]) above 1000 nM. This compound also came in with a solubility in data set [1] of 0.3 µg/mL (≈ 0.803 µM).

As to `COc1nc2cc(N3CCN(C)CC3)ccc2n1C(=O)NCCCc1ccccc1` [Example 194, 2-Methoxy-5-(4-methylpiperazin-1-yl)-N-(3-phenylpropyl)-1H-benzo[d]imidazole-1-carboxamide], on acid ceramidase (pH 4.5), the IC50 fell in the range of 200 to 1000 nM. Also, the concentration in solution in data set [1] (solubility) was 30 µg/mL (≈ 73.6 µM).

The compound `CN1CCN(c2cccc3c2ncn3C(=O)NCCC#Cc2ccccc2)CC1` [Example 352, 4-(4-Methylpiperazin-1-yl)-N-(4-phenylbut-3-yn-1-yl)-1H-benzo[d]imidazole-1-carboxamide] registered a concentration for half-maximal inhibition (IC50) against acid ceramidase (setting [2]) below 200 nM. In data set [1], this compound gave a solubility of 2 µg/mL (≈ 5.16 µM).

In turn, `CC(C)(C)CCCNC(=O)n1cnc2c(N3CCOCC3)cccc21` [Example 186, N-(4,4-Dimethylpentyl)-4-morpholino-1H-benzo[d]imidazole-1-carboxamide] showed an IC50 at acid ceramidase (pH 4.5) below 200 nM. In data set [1], the concentration in solution (solubility) came to 10 µg/mL (≈ 29 µM).

The compound `COc1cccc2c1nc(OC)n2C(=O)NCCC(C)C` [Example 115, N-iso-Pentyl-2,4-dimethoxy-1H-benzo[d]imidazole-1-carboxamide] registered a half-inhibitory concentration (IC50) at acid ceramidase (setting [2]) above 1000 nM. In data set [1], this compound displayed a solubility of 15.4 µg/mL (≈ 52.9 µM).

`N#CCCN1CCN(c2cccc3c2ncn3C(=O)NCCCc2ccccc2)CC1` [Example 278, 4-(4-(2-Cyanoethyl)piperazin-1-yl)-N-(3-phenylpropyl)-1H-benzo[d]imidazole-1-carboxamide] gave an IC50 at acid ceramidase (pH 4.5) below 200 nM. Further, in data set [1], the concentration in solution (solubility) came to 18 µg/mL (≈ 43.2 µM).

For `CC(C)CCNC(=O)n1cnc2c(N3CC4CCC(C3)N4C)cccc21` [Example 161, N-iso-Pentyl-4-(8-methyl-3,8-diazabicyclo[3.2.1]-octan-3-yl)-1H-benzo[d]imidazole-1-carboxamide], the IC50 against acid ceramidase (pH 4.5) lay within 200 to 1000 nM. For the same compound, the solubility in data set [1] is 35 µg/mL (≈ 98.5 µM).

Turning to `CN1CCC(c2cc3c(cc2Cl)ncn3C(=O)NCCc2ccccc2)CC1` [Example 11a, 5-Chloro-6-(1-methylpiperidin-4-yl)-N-phenethyl-1H-benzo[d]imidazole-1-carboxamide], the IC50 at acid ceramidase (setting [2]) is below 200 nM. This compound also yielded a solubility in data set [1] of 23.1 µg/mL (≈ 58.2 µM).

Turning to `O=C(NCCc1ccccc1)n1cnc2cc(C(F)(F)F)ccc21` [Example 26a, N-Phenethyl-5-(trifluoromethyl)-1H-benzo[d]imidazole-1-carboxamide], the IC50 against acid ceramidase (setting [2]) is below 200 nM. In data set [1], this compound yielded a solubility of 0.5 µg/mL (≈ 1.5 µM).

Compound `CC(C)CCNC(=O)n1cnc2c(N3CCO[C@@H](C(C)C)C3)cccc21` [Example 172a, (S)—N-iso-Pentyl-4-(2-iso-propylmorpholino)-1H-benzo[d]imidazole-1-carboxamide] showed a concentration for half-maximal inhibition (IC50) against acid ceramidase (pH 4.5) of 200 to 1000 nM. The solubility in data set [1] came to 4 µg/mL (≈ 11.2 µM).

`CC(C)C#CCNC(=O)n1cnc2c(N3CC4(CCN4C)C3)cccc21` [Example 359, 4-(1-Methyl-1,6-diazaspiro[3.3]heptan-6-yl)-N-(4-methylpent-2-yn-1-yl)-1H-benzo[d]imidazole-1-carboxamide] displayed a half-inhibitory concentration (IC50) against acid ceramidase (setting [2]) of 200 to 1000 nM. In addition, the solubility in data set [1] amounted to 23 µg/mL (≈ 65.4 µM).

On acid ceramidase (pH 4.5), `CC1(N)CCN(c2cccc3c2ncn3C(=O)NCCCc2ccccc2)CC1` [Example 263, 4-(4-Amino-4-methylpiperidin-1-yl)-N-(3-phenylpropyl)-1H-benzo[d]imidazole-1-carboxamide] showed an IC50 below 200 nM. The compound also yielded a solubility in data set [1] of 25 µg/mL (≈ 63.9 µM).

Regarding `CC(C)CNC(=O)n1cnc2cc(C(F)(F)F)c(-c3cncnc3)cc21` [Example 77b, N-iso-butyl-6-(pyrimidin-5-yl)-5-(trifluoromethyl)-1H-benzo[d]imidazole-1-carboxamide], at acid ceramidase (setting [2]), the IC50 was below 200 nM. For the same compound, in data set [1], the concentration in solution (solubility) was 7.4 µg/mL (≈ 20.4 µM).

`CCCCNC(=O)n1cnc2cc(C(F)(F)F)ccc21` [Example 49a, N-Butyl-5-(trifluoromethyl)-1H-benzo[d]imidazole-1-carboxamide] had an IC50 against acid ceramidase (setting [2]) below 200 nM. This compound also returned a solubility in data set [1] of 15.6 µg/mL (≈ 54.7 µM).

Regarding `COc1nc2cc(N3CCOCC3)ccc2n1C(=O)NCCCc1ccc(F)cc1F` [Example 224b, N-(3-(2,4-difluorophenyl)propyl)-2-methoxy-5-morpholino-1H-benzo[d]-imidazole-1-carboxamide], the IC50 against acid ceramidase (pH 4.5) is below 200 nM. Moreover, the solubility in data set [1] is 12 µg/mL (≈ 27.9 µM).

For the origin of these results see patent publication US20220380319A1 (Bial - R&D Investments, S.A., priority 2019, published 2022).
